Reference: patent publication US20240284907A1, “NOVEL DERIVATIVES OF NON-CODED AMINO ACIDS AND THEIR USE AS HERBICIDES” (FortePhest LTD., priority 2021, published 2024)

The molecules below were run on Seeds of Lettuce R. (Super-Jericho) (assay: Filter paper bioassay with lettuce seeds: germination and early plant development, Minimal Effective Concentration (MEC)). Details: lettuce seeds on filter paper, 0 to 1 mmol/l, visually assessed after 6 days.
Format: in vivo
Text: Materials: Seeds of Lettuce R. (Super-Jericho, non-sterilized) were obtained from Ben Shahar Moshe Ltd., 99% purity. The test compounds listed in the Table 2 below were synthetized de novo or purchased from different vendors.
Filter Paper Bioassays with Lettuce seeds: The protocol is following Bertin et al. 2009 and Movellan et al. 2014 with specified modifications as described below.
Seeds were placed on Whatman no. 1 filter paper (Whatman, Middlesex, U.K.) in Petri dishes (10 seeds per plate) with 2.0 ml of aqueous solution of a test material in concentration ranged from 0 (control) to 1 mmol/l were placed in a tray tilted at 45[…]. The trays were kept in dark for 48 hours and then transferred to the growth chamber with 6/18 dark/light cycle for 4 days. Each experiment was performed at least with two repeats.
The development of plants' radicle and shoots were visually assessed 6 days after the beginning of the test to determine Minimal Effective Concentration (MEC) of a test material. In the context of the invention, MEC is defined as the lowest concentration level of a test material that caused deviation (absence of germination or malformation of radicle or shoots) from the plant's development in the Control group.

| Molecule | Score (activity score of Minimal Effective Concentration, MEC) |
| --- | --- |
| O=C(O)/C=C/c1ccc(Cl)nc1Cl [compound 694, (2E)-3-(2,6-dichloropyridin-3-yl)prop-2-enoic acid] | Moderate (0.1 mM) |
| N=C(N)NCc1cccc(Br)n1 [compound 6636, N-[(6-bromopyridin-2-yl)methyl]guanidine] | Moderate (0.1 mM) |
| (2E)-3-(2-bromo-strong-nitropyridin-4-yl)prop-2-enoic acid [compound 6608] | Moderate (0.1 mM) |
| 2-bromopyridine-4-carboxamide [compound 6600] | Weak (Higher than 0.1 mM) |
| O=C(O)C(F)(F)c1ncccn1 [compound 6619, 2,2-difluoro-2-(pyrimidin-2-yl)acetic acid] | Weak (Higher than 0.1 mM) |
| methyl 2-(2-bromopyridin-4-yl)-2,2-difluoroacetate [compound 6629] | Moderate (0.1 mM) |
| [(2-bromo-1,3-thiazol-4-yl)(difluoro)methyl]phosphonic acid [compound 5737] | Weak (Higher than 0.1 mM) |
| dichloro-1,3-thiazole-4-carboxamide [compound 5616] | Moderate (0.1 mM) |
| 2-(6-bromopyridin-3-yl)-2,2-difluoroacetic acid [compound 6620] | Strong (0.01 mM) |
| NC(Cc1cccc(Br)c1)C(=O)O (stereo not drawn) [compound 6669, 2-amino-3-(3-bromophenyl)propanoic acid] | Moderate (0.1 mM) |
| OCCc1ccsc1 [compound 589, 2-(thiophen-3-yl)ethan-1-ol] | strong |
| Cc1nsnc1CC(=O)O [compound 5785, (4-methyl-1,2,5-thiadiazol-3-yl)acetic acid] | Moderate (0.1 mM) |
| naphthalene-2-carboxylic acid [compound 691] | Weak (Higher than 0.1 mM) |
| O=C(O)/C=C/c1cccnc1Br [compound 6605, (2E)-3-(2-bromopyridin-3-yl)prop-2-enoic acid] | Strong (0.01 mM) |
| O=C(Cc1ccccc1)NCCc1cc(Cl)sc1Cl [compound 5708, N-[2-(2,5-dichlorothiophen-3-yl)ethyl]-2-phenylacetamide] | Moderate (0.1 mM) |
| 4-(2,5-dichlorothiophen-3-yl)butanoic acid [compound 597] | Moderate (0.1 mM) |
| O=C(O)c1cnc2sc(Cl)nc2c1 [compound 5683, 2-chloro[1,3]thiazolo[54-b]pyridine-6-carboxylic acid] | Moderate (0.1 mM) |
| Cl.Nc1nc2c(s1)CCCC2C(=O)O (stereo not drawn) [compound 5673, 2-amino-4567-tetrahydro-1,3-benzothiazole-4-carboxylic acid hydrochloride] | <moderate |
| O=C(O)/C=C/c1cccnc1Cl [compound 6604, (2E)-3-(2-chloropyridin-3-yl)prop-2-enoic acid] | Moderate (0.1 mM) |
| (2E)-3-(3-chloro-1H-1,2,4-triazol-5-yl)prop-2-enoic acid [compound 5621] | Weak (Higher than 0.1 mM) |
| CNNC(=O)Cc1csc(Cl)n1 [compound 5715, 2-(2-chloro-1,3-thiazol-4-yl)-N′-methyl acetohydrazide] | Moderate (0.1 mM) |
| O=C([O-])Cc1cnsn1.[Li+] [compound 5776, lithium(1+) 2-(1,2,5-thiadiazol-3-yl)acetate[Li+]] | Moderate (0.1 mM) |
| O=C(O)C(O)Cc1cc(Cl)sc1Cl (stereo not drawn) [compound 585, 3-(2,5-dichlorothiophen-3-yl)-2-hydroxypropanoic acid] | moderate |
| O=C(O)C(F)(F)c1ccc2[nH]c(=O)[nH]c2c1 [compound 5654, 2,2-difluoro-2-(2-oxo-23-dihydro-1H-1,3-benzodiazol-5-yl)acetic acid] | Weak (Higher than 0.1 mM) |
| 6-bromopyridine-2-carbonitrile [compound 6670] | Weak (Higher than 0.1 mM) |
| [3-(2-bromo-1,3-thiazol-4-yl)propyl]phosphonic acid [compound 5774] | Weak (Higher than 0.1 mM) |

| Molecule | Score (activity score of Minimal Effective Concentration, MEC) |
| --- | --- |
| O=C(O)CCc1cc(Cl)sc1Cl [compound 5606, 3-(2,5-dichlorothiophen-3-yl)propanoic acid] | Moderate (0.1 mM) |
| O=C(O)C(F)(F)c1cscc1C(F)(F)F [compound 5764, difluoro[4-(trifluoromethyl)thiophen-3-yl]acetic acid] | Strong (0.01 mM) |
| 3-{[(2,5-dichlorothiophen-3-yl)methyl]amino}-2,2-difluoropropanoic acid [compound 5624] | Weak (Higher than 0.1 mM) |
| CCOC(=O)Cc1csc(Cl)c1 [compound 5796, ethyl(5-chlorothiophen-3-yl)acetate] | Moderate (0.1 mM) |
| 2-bromo-N-[(2,5-dichlorothiophen-3-yl)methyl]pyridine-4-carboxamide [compound 5614] | Moderate (0.1 mM) |
| 2-(3-chloro-1,2-thiazol-4-yl)-2,2-difluoroacetic acid [compound 5773] | Moderate (0.1 mM) |
| NC(=O)Nc1ccnc(Br)c1 [compound 6602, (2-bromopyridin-4-yl)urea] | Weak (Higher than 0.1 mM) |
| O=C(O)C(F)(F)c1sc(Cl)nc1Cl [compound 5722, (24-dichloro-1,3-thiazol-5-yl)(difluoro)acetic acid] | Weak (Higher than 0.1 mM) |
| O=C(O)C(F)c1nc(F)c(F)cc1F (stereo not drawn) [compound 6661, 2-fluoro-2-(3,5,6-trifluoropyridin-2-yl)acetic acid] | Moderate (0.1 mM) |
| CC(=O)Nc1nc(Cl)sc1Cl [compound 5618, N-(2,5-dichloro-1,3-thiazol-4-yl)acetamide] | Moderate (0.1 mM) |
| O=C(O)C(=O)c1ccc(Br)nc1 [compound 6609, 2-(6-bromopyridin-3-yl)-2-oxoacetic acid] | Weak (Higher than 0.1 mM) |
| difluoro[4-(trifluoromethyl)-1,3-thiazol-2-yl]acetic acid [compound 5760] | Moderate (0.1 mM) |
| O=C(O)c1nc(Cl)sc1Cl [compound 596, 2,5-dichloro-1,3-thiazole-4-carboxylic acid] | Weak (Higher than 0.1 mM) |
| NNC(=O)Cc1csc(Cl)n1 [compound 5704, 2-(2-chloro-1,3-thiazol-4-yl)acetohydrazide] | Moderate (0.1 mM) |
| [(2,5-dichlorothiophen-3-yl)methyl]hydrazine [compound 5610] | Weak (Higher than 0.1 mM) |
| O=C(O)Cc1csc(-c2ncc(Cl)cc2F)n1 [compound 5716, 2-[2-(5-chloro-3-fluoropyridin-2-yl)-1,3-thiazol-4-yl]acetic acid] | Moderate (0.1 mM) |
| O=C(O)/C=C/c1ccnc(Br)c1[N+](=O)[O-] [compound 6631, (2E)-3-(2-bromo-3-nitropyridin-4-yl)prop-2-enoic acid] | Moderate (0.1 mM) |
| 3-(thiophen-3-yl)propan-1-amine [compound 593] | weak |
| CCOC(=O)C(NC(C)=O)C(F)(F)c1nnc(CCl)s1 (stereo not drawn) [compound 598, ethyl3-[5-(chloromethyl)-1,3,4-thiadiazol-2-yl]-2-acetamido-3,3-difluoropropanoate] | Weak (Higher than 0.1 mM) |
| O=C(O)C(F)(F)c1csc(-c2ccc(C(F)(F)F)cc2F)n1 [compound 5763, 2,2-difluoro-2-{2-[2-fluoro-4-(trifluoromethyl)phenyl]-1,3-thiazol-4-yl}acetic acid] | Moderate (0.1 mM) |
| [2-(2,5-dichlorothiophen-3-yl)ethyl]hydrazine [compound 5705] | Moderate (0.1 mM) |
| ethyl 2-(2-chlorooxazol-4-yl)-2,2-difluoroacetate [compound 5783] | Moderate (0.1 mM) |
| {2-[(6-amino-9H-purin-9-yl)methoxy]ethoxy}methyl(2-chloro-1,3-thiazol-4-yl)acetate [compound 5752] | Moderate (0.1 mM) |
| 2-{[(2,5-dichlorothiophen-3-yl)methyl]amino}acetic acid [compound 5615] | Weak (Higher than 0.1 mM) |
| NCCSCCc1ccsc1 [compound 5603, 2-{[2-(thiophen-3-yl)ethyl]sulfanyl}ethan-1-amine] | Weak (Higher than 0.1 mM) |
